Measurements: article PMC9967645, “OAT3 Participates in Drug–Drug Interaction between Bentysrepinine and Entecavir through Interactions with M8—A Metabolite of Bentysrepinine—In Rats and Humans In Vitro” (Molecules, 2023)

Legend:
[1] = Pharmacokinetic DDI study in rats, oral Y101 and/or ETV; type: in vivo, Sprague–Dawley (SD) rats; settings: Sprague-Dawley, rat, plasma, n = 4
Description: Additionally, DDI between Y101 and ETV was investigated by monitoring time-course plasma Y101 in rats with surgery as described above. Animals were randomly placed into three groups (n = 4): (1) Y101 alone (25 mg/kg for intravenous treatment and 60 mg/kg for oral administration); (2) ETV (0.06 mg/kg); and (3) Y101 (25 mg/kg for intravenous treatment and 60 mg/kg for oral administration) + ETV (0.06 mg/kg). ETV was dissolved in saline at concentration of 12 µg/mL. Rats received an oral or intravenous dose of Y101 and/or ETV at volume of 5 mL/kg. The doses used in in vivo pharmacokinetic studies were selected in accordance with therapeutic doses of Y101 and ETV commonly used clinically and in previous studies.
Following administration, serial blood samples were collected through jugular vein pre-dose (0 h) and post-dose at 0.033, 0.083, 0.25, 0.5, 1, 1.5, 2, 3, 4, 6, 9, 12, 24 and 30 h in heparinized Eppendorf tubes. The resulting samples were centrifuged at 13,800× g at 4 °C for 5 min to obtain plasma. All plasma samples were stored at −70 °C until analysis.
Biological samples were prepared as previously described.
Non-compartmental analysis with Phenix WinNonlin (version 8.1; Pharsight, Certara Corp, Princeton, NJ) was used to calculate the main pharmacokinetic parameters of ETV, Y101, M8 and M9 for individual rats. The observed values were reported for maximum concentration (Cmax) and time to reach maximum concentration (Tmax), while the area under the plasma concentration–time curve (AUC) was calculated via the default trapezoidal-up, log-trapezoidal-down approach.

[2] = system: rat kidney slices; experiment: In vitro uptake assay in kidney slices; type: in vitro ADME; settings: for time and temperature dependence of uptake in kidney slices: 37 °C vs 4 °C, M9 1.0 µM, 5 to 30 min
Description: The renal cortex was cut into 300 µm slices with a ZQP-86 tissue slicer (Shanghai Zhisun Equipment Co., Ltd., Shanghai, China; surface area 0.15 cm^2). […] Next, the kidney slices were prepared as previously described. Two slices per well were placed into 37 °C buffer filled with oxygen for pre-incubation for 3 min and then gently moved into a 24-well cell culture plate containing 1 mL oxygenated buffer at 4 °C or 37 °C. The uptakes of ETV (10 µM), Y101 (2.0 µM), M8 (5.0 µM) and M9 (1.0 µM) were measured at 5, 10, 15 and 30 min after the treatment, respectively. […] Following incubation at the designated time, kidney slices were collected, rinsed with ice-cold buffer three times, and dried on filter paper. After weighing and homogenization (IKA-T 10 homogenizer; IKA, Staufen, Germany), the concentrations of Y101, M8, M9 and ETV of kidney slice homogenates were determined as in the description below.
Biological samples were prepared as previously described. Aliquots (50 µL) of urine, plasma, kidney homogenates, or cell lysates were individually mixed with 150 µL methanol and 50 µL working solution of internal standard (acetaminophen or bestatin), followed by vortexing for 1 min and centrifuging at 13,800 g for 10 min. […] The resulting supernatant (1 µL) was subjected to LC-MS/MS for the assessment of Y101, M8, M9 and ETV, respectively. […] The concentrations of ETV, Y101, M8 and M9 were determined by an AB QTRAP 5500 LC–MS/MS System (Foster City, CA, USA) as previously described. Chromatographic separation was achieved on an Infinitylab Poroshell 120 EC-C18 (50 mm × 2.1 mm, 2.7 µm, Agilent Technology Inc., CA, USA) at 40 °C. The mobile phase consisted of formic acid-acetonitrile (0.05:100, v/v) and a mixture of 1 mmol-ammonium acetate-acetonitrile-formic acid (95:5:0.05, v/v/v) at a flow rate of 0.3 mL/min. […] Analyst1.5.2 software was used for data processing and analysis.

[3] = oral Y101 60 mg/kg + ETV 0.06 mg/kg
[4] = ETV 10 µM, Y101 2.0 µM, M8 5.0 µM

| AUC(0-inf) [1, 3] | AUC(0-t) [1, 3] | Cmax [1, 3] | Tmax [1, 3] | half-life [1, 3] | AUC(0-inf) ([1]; oral ETV 0.06 mg/kg alone) | AUC(0-t) ([1]; oral ETV 0.06 mg/kg alone) | Cmax ([1]; oral ETV 0.06 mg/kg alone) | Tmax ([1]; oral ETV 0.06 mg/kg alone) | half-life ([1]; oral ETV 0.06 mg/kg alone) | Compound | AUC(0-inf) ([1]; oral Y101 60 mg/kg alone) | AUC(0-t) ([1]; oral Y101 60 mg/kg alone) | Cmax ([1]; oral Y101 60 mg/kg alone) | Tmax ([1]; oral Y101 60 mg/kg alone) | half-life ([1]; oral Y101 60 mg/kg alone) | time and temperature dependence of uptake in kidney slices ([2]; Y101 2.0 µM, M8 5.0 µM) | effect on the uptake of ETV in kidney slices [2, 4] | inhibition of the uptake of M8 in kidney slices ([2]; M8 5.0 µM, PCG 0.2 and 0.5 mM, PRO 0.1 mM, PAH 0.2 and 0.5 mM, TEA 0.2 mM, 10 min, ETV 10 µM) | inhibition of the uptake of Y101 in kidney slices ([2]; Y101 2.0 µM, PCG 0.2 and 0.5 mM, PRO 0.1 mM, PAH 0.2 and 0.5 mM, TEA 0.2 mM, 10 min, ETV 10 µM) |
| --- | --- | --- | --- | --- | --- | --- | --- | --- | --- | --- | --- | --- | --- | --- | --- | --- | --- | --- | --- |
| 7.41 ng·h/mL | 6.76 ng·h/mL | 2.94 ng/mL | 0.875 h | 1.45 h | 8.49 ng·h/mL | 8.15 ng·h/mL | 5.54 ng/mL | 0.5 h | 1.1 h | C=C1[C@H](CO)[C@@H](O)C[C@@H]1n1cnc2c(=O)[nH]c(N)nc21 [ETV, entecavir] | – | – | – | – | – | – | – | significantly inhibited the uptake of M8 | did not show any inhibitory effects |
| 10400 ng·h/mL | 10300 ng·h/mL | 1980 ng/mL | 1.5 h | 3.64 h | – | – | – | – | – | CN(C)CCOc1ccc(CC(NC(=O)c2ccccc2)C(=O)O)cc1 (stereo not drawn) [M8] | 10200 ng·h/mL | 10100 ng·h/mL | 2030 ng/mL | 2.25 h | 3.44 h | temperature-dependent | not affected | – | – |

| Compound | AUC(0-inf) [1, 3] | AUC(0-t) [1, 3] | Cmax [1, 3] | Tmax [1, 3] | half-life [1, 3] | AUC(0-inf) ([1]; oral ETV 0.06 mg/kg alone) | AUC(0-t) ([1]; oral ETV 0.06 mg/kg alone) | Cmax ([1]; oral ETV 0.06 mg/kg alone) | Tmax ([1]; oral ETV 0.06 mg/kg alone) | half-life ([1]; oral ETV 0.06 mg/kg alone) | AUC(0-inf) ([1]; oral Y101 60 mg/kg alone) | AUC(0-t) ([1]; oral Y101 60 mg/kg alone) | Cmax ([1]; oral Y101 60 mg/kg alone) | Tmax ([1]; oral Y101 60 mg/kg alone) | half-life ([1]; oral Y101 60 mg/kg alone) | time and temperature dependence of uptake in kidney slices ([2]; Y101 2.0 µM, M8 5.0 µM) | effect on the uptake of ETV in kidney slices [2, 4] | inhibition of the uptake of M8 in kidney slices ([2]; M8 5.0 µM, PCG 0.2 and 0.5 mM, PRO 0.1 mM, PAH 0.2 and 0.5 mM, TEA 0.2 mM, 10 min, ETV 10 µM) | inhibition of the uptake of Y101 in kidney slices ([2]; Y101 2.0 µM, PCG 0.2 and 0.5 mM, PRO 0.1 mM, PAH 0.2 and 0.5 mM, TEA 0.2 mM, 10 min, ETV 10 µM) |
| --- | --- | --- | --- | --- | --- | --- | --- | --- | --- | --- | --- | --- | --- | --- | --- | --- | --- | --- | --- |
| CN(C)CCOc1ccc(C[C@H](NC(=O)c2ccccc2)C(=O)N[C@H](CO)Cc2ccccc2)cc1.Cl [Y101, N-[N-benzoyl-O-(2-dimethylaminoethyl)-l-tyrosyl]-l-phenylalaninol hydrochloride] | 1680 ng·h/mL | 1620 ng·h/mL | 843 ng/mL | 0.313 h | 1.11 h | – | – | – | – | – | 1620 ng·h/mL | 1570 ng·h/mL | 668 ng/mL | 0.25 h | 0.998 h | time- and temperature-dependent | not affected | – | – |
